IC50 and cellular toxicity data for two molecules are collected here from US10845368B2, “Nanoparticles for mitochondrial trafficking of agents” (UNIVERSITY OF GEORGIA RESEARCH FOUNDATION, INC., priority 2012, dated 2020).

Usually IC50 stands for the concentration at which inhibition is half-maximal. The low end stands for greater potency in that assay, the high end for weaker potency in that assay.

Data set [1] deals with HeLa cells. The data set is described as follows: MTT cytotoxicity assay. The class given is cell-based, human. From the text:
FIGS. 11A-C are bar graphs showing cytotoxicity profiles of targeted LND nanoparticles, nontargeted LND nanoparticles, free LND (A); targeted α-TOS nanoparticles, nontargeted α-TOS nanoparticles, free α-TOS in HeLa cells (B); and empty targeted nanoparticles, and empty nontargeted nanoparticles in HeLa cells (C).
The selectivity and efficiency of LND and α-TOS against cancer cells depend on their ability to target the mitochondria of cells. To evaluate the efficacy of our targeted nanoparticles in delivering LND and α-TOS, we performed MTT assays in HeLa cells. […] Preferential localization in the target organelle accounts for the enhanced cytotoxicity of both LND and α-TOS encapsulated in the targeted nanoparticles.
A general note: Tetrazolium assays rely on reduction of a dye to a coloured formazan, in cell work by metabolically active cells.

The subject of data set [2] is 3T3-L1 cells. To be noted: 3T3-L1, 100 μM.
Experimental: To examine whether encapsulation of 2,4-DNP in targeted nanoparticles can suppress the induced differentiation of 3T3-L1 preadipocytes at a low dosage that is insufficient to exert cytotoxicity, we continuously exposed 3T3-L1 cells to 1 μM, 4 μM, 25 μM, and 100 μM targeted 2,4-DNP nanoparticles (FIGS. 12A-D and 13) during the differentiation period for 7 d, and evaluated cell viability and intracellular lipid accumulation. Nontargeted 2,4-DNP nanoparticles and free 2,4-DNP were used as controls.

Turning to `Cc1c(C)c2c(c(C)c1OC(=O)CCC(=O)O)CC[C@@](C)(CCC[C@H](C)CCC[C@H](C)CCCC(C)C)O2` [free α-TOS, α-tocopheryl succinate], in data set [1], it took 381 ± 5 nM to reach half-maximal inhibition (IC50).

`O=[N+]([O-])c1ccc(O)c([N+](=O)[O-])c1` [Free 2,4-DNP, 2,4-dinitrophenol]: the cellular toxicity result in data set [2] is reported as “demonstrated cellular toxicity”.
